According to patent publication EP0016946A1, “Process and reagent for the activation of cholesterol esterase” (BOEHRINGER MANNHEIM GMBH, priority 1979, dated 1980):
One block for each compound: values may come before it.

System: Cholesterinesterase
Assay: Cholesterol esterase activity: rate of ester cleavage, continuous-flow apparatus with photometric cholesterol indicator reaction (546 nm)
Format: biochemical
Protocol: Zum Nachweis der aktivierenden Wirkung der zu untersuchenden synergistischen Kombinationen der Erfindung auf Cholesterinesterase wurde die in Fig. 1 dargestellte Apparatur verwendet.
Aus einem temperierbaren Reaktionsgefäß 1 (25°C), in dem sich die Esterspaltung vollzieht, werden über eine Schlauchpumpe 2 durch einen Förderschlauch 3 definierten Querschnitts kontinuierlich o,32 ml Gemisch/Minute entnommen. über die gleiche Pumpe wird durch einen zweiten Schlauch 4 aus einem Vorratsgefäß 5 ebenfalls kontinuierlich 1,o ml Indikatorlösung/Minute gefördert, hinter der Pumpe 2 mit einem Luftstrom 6 von konstant o,6 ml Luft/ Minute zusammengeführt und damit segmentiert und dann mit dem zuvor beschriebenen Reaktionsgemischstrom vereinigt. Der Gesamtstrom passiert daraufhin zwei Glasschlangen 7, wodurch eine Durchmischung der Flüssigkeiten und die notwendige Reaktionszeit für die Indikatorreaktion bis zum Endpunkt gewährleistet wird. Durch Abziehen eines Stroms von 1,2 ml/Minute unmittelbar vor der Küvette durch Schlauchleitung 8 senkrecht nach oben werden die Luftblasen wieder entfernt. Der nicht segmentierte Reststrom wird zur photometrischen Messung (bei 546 nm) in eine Durchflußküvette (1 cm Schichtdicke) geleitet und die Meßwerte werden vom Schreiber 1o registriert.
Wegen der gleichbleibenden Bedingungen bezüglich der Indikatorreaktion sind Änderungen in Höhe und Verlauf des Meßsignals allein von den Vorgängen im Reaktionsgefäß abhängig. Findet dort eine Esterspaltung statt, so bewirkt deren kinetischer Verlauf eine Zunahme des Meßsignals, welches als positive Steigung mit dem Schreiber 1o registriert wird. Die Steilheit des Anstiegs ist ein Maß für die Reaktionsgeschwindigkeit und damit für die Cholesterinesteraseaktivität im Reaktionsansatz.
Wegen des getrennten Ablaufs von Esterspaltung und Indikatorreaktion ist eine gegenseitige Beeinflussung ausgeschlossen. Natürlich wären auch andere Indikatorsysteme einschließlich der Sauerstoffelektrode verwendbar.
Die Indikatorlösung setzt zunächst freies Cholesterin zu Cholestenon und H202 um. Das entstandene H202 wird mit Phenol und 4-Aminoantipyrin zu einem roten Farbstoff umgesetzt, dessen Absorption photometrisch gemessen wird. Die Menge des entstehenden Farbstoffs ist der Konzentration des freien Cholesterins proportional. Die Konzentration an freiem Cholesterin setzt sich aus dem bereits im Substrat vorhandenen Anteil an freiem Cholesterin sowie aus dem durch die Esterase freigesetzten Cholesterin zusammen.
Start mit 50 µl einer Esterase-Stocklösung, woraufhin o,oo3 U/ml Esterase im Ansatz vorliegen. Bei Aktivitätsabstufungen wurde diese Menge variiert.
Nach erfolgtem Start und Durchmischung wird bei laufender Pumpe 2 der Förderschlauch 3 in die Lösung im Reaktionsgefäß 1 für etwa 1o Minuten eingetaucht. Anschließend wird zur besseren Trennung der Signale in jeweils etwa 1o Segmenten wechselweise Luft und bidest. Wasser angesaugt. Daraufhin kann die nächste Bestimmung erfolgen.

Structure (SMILES): OCC(Cl)(Cl)Cl [2,2,2-Trichloräthanol]
Resultierende Geschwindigkeit gegenüber Vergleichswert (1 Vol.-% additive, 1o %o Genapol OX-1oo/1o %o Na-Caprylat, o,oo3 U/ml Cholesterinesterase, o,1 M Kaliumphosphatpuffer, pH 7,o with adjuvant vs o,3 M buffer without adjuvant): Der Vergleichswert wird übertroffen
Resultierende Geschwindigkeit gegenüber Vergleichswert (o,1 Vol.-% additive, o,3 M Kaliumphosphatpuffer, pH 7,o, reduced Tergitol NPX concentration with adjuvant vs detergent concentration optimum without adjuvant, o,oo3 U/ml Cholesterinesterase): Der Vergleichswert wird übertroffen
Resultierende Geschwindigkeit gegenüber Vergleichswert (o,3 Vol.-% additive, 0,3 M Kaliumphosphatpuffer, pH 7,o, reduced Genapol OX-1oo/Natriumcaprylat concentration with adjuvant vs detergent concentration optimum without adjuvant, o,oo3 U/ml Cholesterinesterase): Der Vergleichswert wird deutlich übertroffen

Resultierende Geschwindigkeit gegenüber Vergleichswert (1,4 Vol.-% additive, 15 %o Tergitol NPX, 0,003 U/ml Cholesterinesterase, o,1 M Kaliumphosphatpuffer, pH 7,o with adjuvant vs o,3 M buffer without adjuvant, 25°C): Der Vergleichswert wird übertroffen
Resultierende Geschwindigkeit gegenüber Vergleichswert (1 Vol.-% additive, 0,3 M Kaliumphosphatpuffer, pH 7,o, reduced Genapol OX-1oo/Natriumcaprylat concentration with adjuvant vs detergent concentration optimum without adjuvant, o,oo3 U/ml Cholesterinesterase): Der Vergleichswert wird erreicht
Structure (SMILES): CC(C)CC(C)O (stereo not shown) [4-Methylpentanol-(2)]

Structure (SMILES): OC1CCCCC1 [Cyclohexanol]
Resultierende Geschwindigkeit gegenüber Vergleichswert (1 Vol.-% additive, o,3 M Kaliumphosphatpuffer, pH 7,o, reduced Tergitol NPX concentration with adjuvant vs detergent concentration optimum without adjuvant, o,oo3 U/ml Cholesterinesterase): Der Vergleichswert wird deutlich übertroffen
Resultierende Geschwindigkeit gegenüber Vergleichswert (2 Vol.-% additive (example 6.3), 15 %o Tergitol NPX, 0,003 U/ml Cholesterinesterase, o,1 M Kaliumphosphatpuffer, pH 7,o with adjuvant vs o,3 M buffer without adjuvant, 25°C): Der Vergleichswert wird deutlich übertroffen
Resultierende Geschwindigkeit gegenüber Vergleichswert (2 Vol.-% additive, 0,3 M Kaliumphosphatpuffer, pH 7,o, reduced Genapol OX-1oo/Natriumcaprylat concentration with adjuvant vs detergent concentration optimum without adjuvant, o,oo3 U/ml Cholesterinesterase): Der Vergleichswert wird übertroffen
Resultierende Geschwindigkeit gegenüber Vergleichswert (2 Vol.-% additive, 1o %o Genapol OX-1oo/1o %o Na-Caprylat, o,oo3 U/ml Cholesterinesterase, o,1 M Kaliumphosphatpuffer, pH 7,o with adjuvant vs o,3 M buffer without adjuvant): Der Vergleichswert wird übertroffen

Structure (SMILES): Oc1ccccc1 [Phenol]
Resultierende Geschwindigkeit gegenüber Vergleichswert (4o mM (ca. o,35 Gew.-%) additive, 1o %o Genapol OX-1oo/1o %o Na-Caprylat, o,oo3 U/ml Cholesterinesterase, o,1 M Kaliumphosphatpuffer, pH 7,o with adjuvant vs o,3 M buffer without adjuvant): Der Vergleichswert wird erreicht
